Results: US20250313563A1, “GLYCOGEN SYNTHASE KINASE 3 INHIBITORS AND USES THEREOF” (The Broad Institute, Inc., priority 2022, published 2025)
Like-named read-outs stand apart in the source and are kept apart here.

What was measured:
[1] = biological target: GSK3α (GST-full length GSK3α) (Homo sapiens (Human), UniProt P49840); assay: GSK3α TR-FRET kinase assay; format: biochemical
How it was run: (§1)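 In this time-resolved FRET format, kinase reactions contained 200 nM biotinylated, S645-phosphorylated glycogen synthase 631-650 peptide and either isoform-specific ATP (2 μM GSK3b, 4 μM GSK3α) or 1 mM ATP. They were quenched with EDTA after 100 min at ambient temperature. Inhibition curves gave IC50 values.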

[2] = biological target: GSK3b (GST-full length GSK3b) (Homo sapiens (Human), UniProt P49841); assay: GSK3b TR-FRET kinase assay; format: biochemical
Chain of GSK3b (GST-full length GSK3b) (P49841 whole entry): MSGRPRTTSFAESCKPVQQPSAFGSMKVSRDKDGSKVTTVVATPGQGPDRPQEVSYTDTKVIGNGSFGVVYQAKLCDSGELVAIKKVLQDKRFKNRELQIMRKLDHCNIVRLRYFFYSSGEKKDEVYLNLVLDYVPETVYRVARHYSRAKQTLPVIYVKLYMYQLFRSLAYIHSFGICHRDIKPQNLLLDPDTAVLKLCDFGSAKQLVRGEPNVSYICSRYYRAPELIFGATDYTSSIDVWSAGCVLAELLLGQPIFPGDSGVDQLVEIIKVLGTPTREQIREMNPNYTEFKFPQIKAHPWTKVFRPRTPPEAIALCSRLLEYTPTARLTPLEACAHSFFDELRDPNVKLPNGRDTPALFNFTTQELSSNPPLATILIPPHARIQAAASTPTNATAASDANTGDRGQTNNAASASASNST
How it was run: as §1

[3] = 1 nM GSK3α, 4 μM ATP, 30 minute preincubation, Table 16, read-out: GSK3-A TR-FRET BIOCHEMICAL (TR-FRET), IC50
[4] = 1 nM GSK3b, 2 μM ATP, 30 minute preincubation, Table 16, read-out: GSK3-B TR-FRET BIOCHEMICAL (TR-FRET), IC50
[5] = read-out: GSK3-A (TR-FRET 1 mM ATP), GMean, IC50, 1 mM ATP, geometric mean
[6] = read-out: GSK3-B (TR-FRET 1 mM ATP), GMean, IC50, 1 mM ATP, geometric mean
[7] = 1 nM GSK3α, 4 μM ATP, 30 minute preincubation, Table 16, read-out: GSK3-A TR-FRET BIOCHEMICAL (TR-FRET)
[8] = 1 nM GSK3b, 2 μM ATP, 30 minute preincubation, Table 16, read-out: GSK3-B TR-FRET BIOCHEMICAL (TR-FRET)

Chain of GSK3α (GST-full length GSK3α) (P49840 whole entry, canonical isoform): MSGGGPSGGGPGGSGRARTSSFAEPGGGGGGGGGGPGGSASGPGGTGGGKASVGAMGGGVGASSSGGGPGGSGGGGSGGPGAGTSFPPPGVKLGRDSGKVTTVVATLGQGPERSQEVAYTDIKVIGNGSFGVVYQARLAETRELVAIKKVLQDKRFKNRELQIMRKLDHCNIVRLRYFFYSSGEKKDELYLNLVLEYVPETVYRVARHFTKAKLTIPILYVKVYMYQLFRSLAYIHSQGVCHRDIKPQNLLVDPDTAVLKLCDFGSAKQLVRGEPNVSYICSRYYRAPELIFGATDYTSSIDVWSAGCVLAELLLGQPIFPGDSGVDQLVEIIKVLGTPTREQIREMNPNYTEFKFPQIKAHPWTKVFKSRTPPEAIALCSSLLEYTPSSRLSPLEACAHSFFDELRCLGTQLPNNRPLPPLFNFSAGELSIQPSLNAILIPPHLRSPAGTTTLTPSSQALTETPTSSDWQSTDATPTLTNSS

IC50 [1, 3] | IC50 [2, 4] | SMILES | also measured
≤ 100 nM | 100 to 1000 nM | CCn1cc(N2CCC3=C(C2=O)[C@](CC)(c2cccc(C(F)(F)F)c2)c2c[nH]nc2N3)cn1 [Compound 949867] | 
100 to 1000 nM | > 5000 nM | CCn1cc(N2CCC3=C(C2=O)[C@](CC)(c2cccc(C(F)(F)F)c2)c2c[nH]nc2N3)cn1 [Compound 949868] | 
≤ 100 nM | ≤ 100 nM | CCC1(c2cccc(-c3cc(C)nnc3C)c2)C2=C(CC(C)(C)NC2=O)Nc2n[nH]c(C(F)(F)F)c21 (centres unmarked) [Compound 949910] | 
100 to 1000 nM | > 5000 nM | CC[C@]1(c2cccc(-c3cnn(C)c3)c2)C2=C(CC(C)(C)NC2=O)Nc2n[nH]c(C(F)F)c21 [Compound 949911] | 
≤ 100 nM | ≤ 100 nM | CC[C@@]1(c2cccc(-c3cnn(C)c3)c2)C2=C(CC(C)(C)NC2=O)Nc2n[nH]c(C(F)F)c21 [Compound 949919] | IC50 [1, 5]: ≤ 100 nM; IC50 [2, 6]: 100 to 1000 nM
≤ 100 nM | 100 to 1000 nM | CC[C@]1(c2cccc(-c3cnn(C4CC4(F)F)c3)c2)C2=C(CC(C)(C)NC2=O)Nc2n[nH]cc21 (some centres unmarked) [Compound 950060] | 
100 to 1000 nM | > 5000 nM | CC[C@]1(c2cccc(-c3cnn(C(C)C)c3F)c2)C2=C(CC(C)(C)NC2=O)Nc2n[nH]cc21 [Compound 950061] | 
≤ 100 nM | 1000 to 5000 nM | CCC1(c2cccc(Cc3ncccn3)c2)C2=C(CC(C)(C)NC2=O)Nc2n[nH]cc21 (centres unmarked) [Compound 950151] | 
 |  | CC[C@]1(c2ccccc2)C2=C(C[C@@]3(CCNC3=O)CC2=O)Nc2n[nH]cc21 [Compound 950160] | IC50 [1, 7]: 1000 to 5000 nM; IC50 [2, 8]: > 5000 nM
 |  | CC[C@@]1(c2ccccc2)C2=C(C[C@@]3(CCNC3=O)CC2=O)Nc2n[nH]cc21 [Compound 950161] | IC50 [1, 7]: 1000 to 5000 nM; IC50 [2, 8]: > 5000 nM
100 to 1000 nM | 100 to 1000 nM | CCC1(c2cccc(-c3ccnc(C)c3)c2)C2=C(CC(C)(C)NC2=O)Nc2n[nH]c(C(F)F)c21 (centres unmarked) [Compound 950162] | 
 |  | CC[C@@]1(c2ccccc2)C2=C(C[C@]3(CCNC3=O)CC2=O)Nc2n[nH]cc21 [Compound 950164] | IC50 [1, 7]: > 5000 nM; IC50 [2, 8]: > 5000 nM
 |  | CC[C@]1(c2ccccc2)C2=C(C[C@]3(CCNC3=O)CC2=O)Nc2n[nH]cc21 [Compound 950165] | IC50 [1, 7]: > 5000 nM; IC50 [2, 8]: > 5000 nM
≤ 100 nM | 1000 to 5000 nM | CC[C@]1(c2cccc(-c3cnn(C(F)F)c3)c2)C2=C(CC(C)(C)NC2=O)Nc2n[nH]cc21 [Compound 950254] | 
≤ 100 nM | 100 to 1000 nM | CC[C@@]1(c2cccc(C(F)(F)F)c2)C2=C(CC(C)(C)C2=O)Nc2n[nH]cc21 [Compound 950272] | 
> 5000 nM | > 5000 nM | CCC1(c2cccc(C(F)(F)F)c2)C2=C(CC(C)(C)C2=O)Nc2n[nH]cc21 (centres unmarked) [Compound 950273] | 
≤ 100 nM | 100 to 1000 nM | CC[C@@]1(c2cccc(-c3ccnc(C)c3)c2)C2=C(CC(C)(C)C2=O)Nc2n[nH]cc21 [Compound 950282] | 
≤ 100 nM | ≤ 100 nM | CCC1(c2cccc(Oc3ncccn3)c2)C2=C(CC(C)(C)NC2=O)Nc2n[nH]c(Cl)c21 (centres unmarked) [Compound 950318] | 
≤ 100 nM | ≤ 100 nM | CCC1(c2cccc(-c3ccncc3F)c2)C2=C(CC(C)(C)NC2=O)Nc2n[nH]c(C(F)F)c21 (centres unmarked) [Compound 950320] | 
≤ 100 nM | ≤ 100 nM | CCC1(c2cccc(Oc3ncccn3)c2)C2=C(CC(C)(C)NC2=O)Nc2n[nH]c(C(F)(F)F)c21 (centres unmarked) [Compound 950323] | 
 |  | CCC1(c2cccc(C(F)(F)F)c2)C2=C(CC3(CCNC3=O)CC2=O)Nc2n[nH]cc21 (centres unmarked) [Compound 950324] | IC50 [1, 7]: ≤ 100 nM; IC50 [2, 8]: 100 to 1000 nM
 |  | CC[C@]1(c2cccc(C(F)(F)F)c2)C2=C(C[C@@]3(CCN(C)C3=O)CC2=O)Nc2n[nH]cc21 [Compound 950325] | IC50 [1, 7]: > 5000 nM; IC50 [2, 8]: > 5000 nM
 |  | CCC1(c2cccc(C(F)(F)F)c2)C2=C(CC3(CCN(C)C3=O)CC2=O)Nc2n[nH]cc21 (centres unmarked) [Compound 950329] | IC50 [1, 7]: ≤ 100 nM; IC50 [2, 8]: ≤ 100 nM
 |  | CCC1(c2cccc(C(F)(F)F)c2)C2=C(CC3(CCN(C)C3=O)CC2=O)Nc2n[nH]cc21 (centres unmarked) [Compound 950330] | IC50 [1, 7]: 100 to 1000 nM; IC50 [2, 8]: > 5000 nM
 |  | CCC1(c2cccc(C(F)(F)F)c2)C2=C(CC3(CCNC3=O)CC2=O)Nc2n[nH]cc21 (centres unmarked) [Compound 950331] | IC50 [1, 7]: 100 to 1000 nM; IC50 [2, 8]: > 5000 nM
 |  | CC[C@@]1(c2cccc(C(F)(F)F)c2)C2=C(C[C@]3(CCNC3=O)CC2=O)Nc2n[nH]cc21 [Compound 950332] | IC50 [1, 7]: > 5000 nM; IC50 [2, 8]: > 5000 nM

IC50 [1, 3] | IC50 [2, 4] | SMILES | also measured
 |  | CC[C@@]1(c2cccc(C(F)(F)F)c2)C2=C(C[C@@]3(CCNC3=O)CC2=O)Nc2n[nH]cc21 [Compound 950333] | IC50 [1, 7]: ≤ 100 nM; IC50 [2, 8]: 100 to 1000 nM
 |  | Cc1nccc([C@H]2CC[C@]3(CC2)C2=C(CC(C)(C)CC2=O)Nc2n[nH]cc23)c1C [Compound 950477] | IC50 [1, 7]: 100 to 1000 nM; IC50 [2, 8]: 100 to 1000 nM
 |  | Cc1nccc([C@H]2CC[C@@]3(CC2)C2=C(CC(C)(C)CC2=O)Nc2n[nH]cc23)c1C [Compound 950478] | IC50 [1, 7]: ≤ 100 nM; IC50 [2, 8]: ≤ 100 nM
≤ 100 nM | 100 to 1000 nM | CCC1(c2cccc(C(F)(F)F)c2)C2=C(CCN(c3cn[nH]c3)C2=O)Nc2n[nH]cc21 (centres unmarked) [Compound 950479] | 
≤ 100 nM | ≤ 100 nM | CCC1(c2cccc(N(C)c3ncccn3)c2)C2=C(CC(C)(C)NC2=O)Nc2n[nH]c(C(F)F)c21 (centres unmarked) [Compound 950484] | 
100 to 1000 nM | 1000 to 5000 nM | CCC1(c2cccc(C(F)(F)F)c2)C2=C(CCN(c3nn(C)cc3C)C2=O)Nc2n[nH]cc21 (centres unmarked) [Compound 950486] | 
100 to 1000 nM | 100 to 1000 nM | CC[C@]1(c2cccc(C(C)C)c2)C2=C(CC(C)(C)NC2=O)Nc2n[nH]c(C(F)(F)F)c21 [Compound 950493] | 
≤ 100 nM | 100 to 1000 nM | CC[C@]1(c2cccc(-c3cnn(C)c3F)c2)C2=C(CC(C)(C)NC2=O)Nc2n[nH]cc21 [Compound 950562] | 
≤ 100 nM | 100 to 1000 nM | CC[C@]1(c2cccc(-c3cnn4c3CC(C)(C)CC4)c2)C2=C(CC(C)(C)NC2=O)Nc2n[nH]cc21 [Compound 950564] | 
100 to 1000 nM | 1000 to 5000 nM | CCC1(c2cccc(C(F)(F)F)c2)C2=C(CCN(c3cc(C)n(C)n3)C2=O)Nc2n[nH]cc21 (centres unmarked) [Compound 950608] | 
≤ 100 nM | 1000 to 5000 nM | CCC1(c2cccc(C(F)(F)F)c2)C2=C(CCN(c3cnn(C)c3C)C2=O)Nc2n[nH]cc21 (centres unmarked) [Compound 950612] | 
≤ 100 nM | 100 to 1000 nM | CCC1(c2cccc(C(F)(F)F)c2)C2=C(CCN(c3cccs3)C2=O)Nc2n[nH]cc21 (centres unmarked) [Compound 950614] | 
≤ 100 nM | 100 to 1000 nM | CCC1(c2cccc(Oc3ncccn3)c2)C2=C(CC(C)(C)NC2=O)Nc2n[nH]c(F)c21 (centres unmarked) [Compound 950615] | 
≤ 100 nM | 100 to 1000 nM | CCC1(c2cccc(C(F)(F)F)c2)C2=C(CCN(c3ccsc3)C2=O)Nc2n[nH]cc21 (centres unmarked) [Compound 950776] | 
≤ 100 nM | 100 to 1000 nM | CCC1(c2cccc(-c3cn(C)nc3C)c2)C2=C(CC3(CCS(=O)(=O)CC3)NC2=O)Nc2n[nH]cc21 (centres unmarked) [Compound 950813] | 
 |  | CC1(C)CC(=O)C2=C(Nc3n[nH]cc3C23CCN(S(=O)(=O)C2CC2)CC3)C1F (centres unmarked) [Compound 950814] | IC50 [1, 7]: ≤ 100 nM; IC50 [2, 8]: ≤ 100 nM
100 to 1000 nM | 1000 to 5000 nM | CCC1(c2cccc(-c3c(C)nnn3C)c2)C2=C(CC(C)(C)C2=O)Nc2n[nH]cc21 (centres unmarked) [Compound 950815] | 
> 5000 nM | > 5000 nM | CC[C@]1(c2cccc(C3CC3)c2)C2=C(CC(C)(C)NC2=O)Nc2n[nH]cc21 [Compound 950817] | 
100 to 1000 nM | 1000 to 5000 nM | CCC1(c2cccc(-c3cc(C)nn3C)c2)C2=C(CC(C)(C)C2=O)Nc2n[nH]cc21 (centres unmarked) [Compound 950818] | 
100 to 1000 nM | 1000 to 5000 nM | CC[C@@]1(c2cccc(-c3cnn(C)c3)c2)C2=C(CC(C)(C)C2=O)Nc2n[nH]cc21 [Compound 950819] | 
100 to 1000 nM | 100 to 1000 nM | CC[C@]1(c2cccc(-c3ccnn3-c3ccc(F)cc3)c2)C2=C(CC(C)(C)NC2=O)Nc2n[nH]cc21 [Compound 950822] | 
≤ 100 nM | ≤ 100 nM | CC[C@]1(c2cccc(-c3ccnn3C3CC3(F)F)c2)C2=C(CC(C)(C)NC2=O)Nc2n[nH]cc21 (some centres unmarked) [Compound 950824] | IC50 ([1]; GSK3-A (TR-FRET 1 mM ATP), GMean, IC50, 1 mM ATP, geometric mean): 100 to 1000 nM; IC50 ([2]; GSK3-B (TR-FRET 1 mM ATP), GMean, IC50, 1 mM ATP, geometric mean): 100 to 1000 nM
> 5000 nM | > 5000 nM | CCC1(c2cccc(-c3c(C)cnc4ccccc34)c2)C2=C(CC(C)(C)NC2=O)Nc2n[nH]cc21 (centres unmarked) [Compound 950825] | 
> 5000 nM | > 5000 nM | CCC1(c2cccc(-c3cnn(C)c3)c2)C2=C(CC(C)(C)C2=O)Nc2n[nH]cc21 (centres unmarked) [Compound 950826] | 
> 5000 nM | > 5000 nM | CC[C@@]1(c2cccc(-c3cc(C)nn3C)c2)C2=C(CC(C)(C)C2=O)Nc2n[nH]cc21 [Compound 950827] | 
≤ 100 nM | 100 to 1000 nM | CC[C@]1(c2cccc(C3CC3)c2)C2=C(CC(C)(C)NC2=O)Nc2n[nH]cc21 [Compound 950828] | IC50 [1, 5]: 1000 to 5000 nM; IC50 [2, 6]: > 5000 nM
